The target in test [1] is T1, fibrinogen receptor (glycoprotein IIb/IIIa) (Homo sapiens, UniProt P05106+P08514).
T1 construct: endogenous in cells
Kind of test: Inhibition of binding of 125I-fibrinogen to its receptor on intact, gel-filtered human platelets. The settings on record: inhibition of 125I-fibrinogen binding, stimulation with ADP (10 μM), read-out: Ki (μM), ADP-stimulated. How it is done: (§1) The compounds are tested in particular for their inhibitory action in blood platelet aggregation and the adhesion of fibrinogen to blood platelets. Gel-filtered blood platelets from human donor blood are used, which are activated with ADP or thrombin.
The inhibition of the binding of fibrinogen to its receptor (glycoprotein IIb/IIIa) by the compounds according to the invention is tested on intact, gel-filtered human platelets. The Ki value of the inhibition of binding of ^125 I-fibrinogen after stimulation with ADP (10 μM) is given. (References: J. S. Bennett and G. Vilaire, J. Clin. Invest. 64 (1979), 1393-1401; E. Kornecki et al., J. Biol. Chem. 256 (1981), 5695-5701; G. A. Marguerie et al., J. Biol. Chem. 254 (1979), 5357-5363; G. A. Marguerie et al., J. Biol. Chem. 255 (1980), 154-161).

The test system of test [2] is gel-filtered human platelets. The test can be described thus: Inhibition of aggregation of gel-filtered human platelets after ADP or thrombin stimulation. It counts as cell-based. How it is done: as §1
As a functional test, the inhibition of aggregation of gel-filtered human platelets by the compounds according to the invention is measured after ADP or thrombin stimulation. The IC50 value of the inhibition is given.

Molecules are shown by their SMILES. pIC50: −log10 of the molar value. Read-outs that look alike come from different tables or passages of the source.

T1 sequence (P08514 32-887 limits assumed): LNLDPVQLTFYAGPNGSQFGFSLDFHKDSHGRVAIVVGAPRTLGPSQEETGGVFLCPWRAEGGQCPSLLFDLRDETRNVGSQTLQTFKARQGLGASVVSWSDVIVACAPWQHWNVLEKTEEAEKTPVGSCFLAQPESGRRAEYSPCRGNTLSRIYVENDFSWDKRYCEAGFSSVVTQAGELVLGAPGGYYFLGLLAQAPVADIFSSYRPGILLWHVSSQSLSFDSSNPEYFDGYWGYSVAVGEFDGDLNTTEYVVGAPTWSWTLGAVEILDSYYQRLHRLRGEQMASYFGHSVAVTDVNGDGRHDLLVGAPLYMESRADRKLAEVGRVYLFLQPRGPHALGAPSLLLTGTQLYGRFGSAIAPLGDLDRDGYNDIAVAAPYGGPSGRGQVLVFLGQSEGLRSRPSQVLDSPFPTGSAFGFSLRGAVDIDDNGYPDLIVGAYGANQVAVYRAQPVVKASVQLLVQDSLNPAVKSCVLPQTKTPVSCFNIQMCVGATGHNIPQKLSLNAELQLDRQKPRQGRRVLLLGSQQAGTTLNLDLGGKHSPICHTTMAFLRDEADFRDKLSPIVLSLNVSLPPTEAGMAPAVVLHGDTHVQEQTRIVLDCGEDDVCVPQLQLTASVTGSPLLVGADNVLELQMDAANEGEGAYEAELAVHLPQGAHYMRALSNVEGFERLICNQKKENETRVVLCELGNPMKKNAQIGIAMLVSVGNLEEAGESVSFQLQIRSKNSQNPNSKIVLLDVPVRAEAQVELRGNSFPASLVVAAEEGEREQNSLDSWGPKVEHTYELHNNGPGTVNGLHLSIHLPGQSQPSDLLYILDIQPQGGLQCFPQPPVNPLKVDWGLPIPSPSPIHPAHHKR
T1 sequence (P08514 891-1039 partner limits assumed): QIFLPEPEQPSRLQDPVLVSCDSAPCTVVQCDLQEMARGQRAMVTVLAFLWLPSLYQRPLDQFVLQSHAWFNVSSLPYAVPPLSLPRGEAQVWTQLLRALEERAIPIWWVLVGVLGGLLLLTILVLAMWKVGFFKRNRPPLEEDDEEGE
T1 sequence (P05106 27-788): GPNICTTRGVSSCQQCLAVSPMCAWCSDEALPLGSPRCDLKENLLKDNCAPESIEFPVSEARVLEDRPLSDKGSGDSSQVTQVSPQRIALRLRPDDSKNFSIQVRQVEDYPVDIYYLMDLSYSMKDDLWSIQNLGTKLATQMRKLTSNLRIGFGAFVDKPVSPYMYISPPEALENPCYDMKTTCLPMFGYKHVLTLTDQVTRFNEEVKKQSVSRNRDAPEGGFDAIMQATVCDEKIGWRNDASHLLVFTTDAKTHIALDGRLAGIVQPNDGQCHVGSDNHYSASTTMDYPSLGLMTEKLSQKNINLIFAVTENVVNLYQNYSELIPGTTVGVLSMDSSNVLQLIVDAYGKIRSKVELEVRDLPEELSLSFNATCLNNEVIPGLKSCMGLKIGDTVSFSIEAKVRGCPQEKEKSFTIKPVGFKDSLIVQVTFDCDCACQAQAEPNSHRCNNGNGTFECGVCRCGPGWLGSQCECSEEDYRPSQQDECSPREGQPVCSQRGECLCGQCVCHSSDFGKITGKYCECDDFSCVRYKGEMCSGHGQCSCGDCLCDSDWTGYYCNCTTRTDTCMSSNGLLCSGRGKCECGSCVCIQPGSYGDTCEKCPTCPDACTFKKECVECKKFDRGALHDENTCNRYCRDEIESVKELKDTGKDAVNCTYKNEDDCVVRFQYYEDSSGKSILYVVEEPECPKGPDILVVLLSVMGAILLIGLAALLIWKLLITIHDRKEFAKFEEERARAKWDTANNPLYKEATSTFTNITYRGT

On to `N=C(N)Nc1ccc(C2NC(=O)N(CC(=O)N[C@@H](CC(=O)O)C(=O)N[C@H](C(=O)O)c3ccccc3)C2=O)cc1` (stereo partly drawn) [Example 1, (5-(4-Guanidinophenyl)-2,4-dioxoimidazolin-3-yl)acetyl-L-aspartyl-L-phenylglycine], for which the inhibitory constant (Ki) in test [1] was found to be 0.03 µM. The negative-log IC50 (pIC50) in test [2] (inhibition of aggregation of gel-filtered human platelets, ADP stimulation, read-out: ADP-stimulated IC50) was 6.70; in test [2] (inhibition of aggregation of gel-filtered human platelets, thrombin stimulation; read-out: Thrombin-stimulated IC50 9 μM)), 7.15.

Take `N=C(N)Nc1cccc(C2NC(=O)N(CC(=O)N[C@@H](CC(=O)O)C(=O)N[C@H](C(=O)O)c3ccccc3)C2=O)c1` (stereo partly drawn) [Example 2]: the inhibitory constant (Ki) in test [1] worked out at 2 µM. Besides, the pIC50 in test [2] (Platelet, inhibition of aggregation of gel-filtered human platelets, ADP stimulation, read-out: ADP-stimulated IC50) was 5.22; in test [2] (Platelet; inhibition of aggregation of gel-filtered human platelets, thrombin stimulation; read-out: Thrombin-stimulated IC50 9 μM)), 5.52.

These data come from patent US5424293A (Cassella AG, priority 1992, dated 1995).
